The source of these data is US10463782B2, “Patient-based parameter generation systems for medical injection procedures” (BAYER HEALTHCARE LLC, priority 2006, dated 2019).

This assay can be described thus: cardiovascular CTA (Siemens Sensation 64) contrast enhancement, generated protocol vs standard biphasic protocol. It counts as in vivo, patients. Here is the method: It was expected that left and right heart contrast enhancement would be more consistent across subjects using the cardiac protocol generation system/method of the present invention as compared to typical methods of establishing protocol parameters. To evaluate the level and consistency of enhancement, cardiac CE CT data from a pilot study were analyzed. Two anatomic regions of interest (the descending aorta and the right ventricle) were identified in each subject's scan (reconstructed at 60% RR interval) via a semi-automatic segmentation algorithm. For every set of axial slices acquired at a single time point, the mean enhancement within each of the regions was computed, yielding time enhancement curves. The influence of a per-patient, contrast injection protocol having a dilution phase on right heart enhancement during cardiac CTA was also studied. Sufficient enhancement for assessment of the right heart allows for the assessment of right heart pathology. […] Standard Errors in the other groups were: uni-phasic (+/−39 HU)), bi-phasic (+/−39 HU), and fixed dilution phase (+/−28 HU). […] Left Heart Enhancement averaged 325 HU+/−80
A study of 20 patients undergoing cardiovascular CTA (Siemens Sensation 64) using injection protocols generated using the system/method of the present invention (Iopimidol 370) and 19 control subjects with a standard biphasic protocol (Iopimidol 370 contrast volume=scan duration×5 ml/s, followed by a 40 ml saline flush) was made. All values of the time enhancement curves were pooled across subjects, and the two groups were compared via unpaired t-tests. The mean enhancements for the protocols generated by the present invention and the biphasic protocols were 357±69 HU and 323±64 HU, respectively (p=10^−8). The right ventricle mean enhancements were 318±85 HU and 212±96 HU (p=10^−21).

In the case of `C[C@H](O)C(=O)Nc1c(I)c(C(=O)NC(CO)CO)c(I)c(C(=O)NC(CO)CO)c1I` [Iopimidol 370, Iopimidol], the “right ventricle mean enhancement (FIG. 35C)” value is recorded as 318±85 HU (protocols generated by the present invention, 20 patients) and 212±96 HU (standard biphasic protocol, 19 control subjects). In addition, the “mean enhancement (descending aorta, FIG. 35B)” value (protocols generated by the present invention, 20 patients, time enhancement curve values pooled across subjects) was found to be 357±69 HU and the “mean enhancement (descending aorta, FIG. 35B)” value (standard biphasic protocol (contrast volume = scan duration x 5 ml/s, then 40 ml saline flush), 19 control subjects) amounted to 323±64 HU.
